pIC50: −log10 of the molar value.
What was measured:
Type in all cases: biochemical
KDM3B (JMJD1B) = molecular target: T1, KDM3B (JMJD1B) (Homo sapiens, UniProt Q7LBC6); test: Histone lysine demethylase AlphaLISA assay, KDM3B; conditions: read-out: KDM3B HDME Inhibition IC50
T1 construct: 842-1761; host or cells: Bac (baculovirus system)
T1 sequence (Q7LBC6 842-1761): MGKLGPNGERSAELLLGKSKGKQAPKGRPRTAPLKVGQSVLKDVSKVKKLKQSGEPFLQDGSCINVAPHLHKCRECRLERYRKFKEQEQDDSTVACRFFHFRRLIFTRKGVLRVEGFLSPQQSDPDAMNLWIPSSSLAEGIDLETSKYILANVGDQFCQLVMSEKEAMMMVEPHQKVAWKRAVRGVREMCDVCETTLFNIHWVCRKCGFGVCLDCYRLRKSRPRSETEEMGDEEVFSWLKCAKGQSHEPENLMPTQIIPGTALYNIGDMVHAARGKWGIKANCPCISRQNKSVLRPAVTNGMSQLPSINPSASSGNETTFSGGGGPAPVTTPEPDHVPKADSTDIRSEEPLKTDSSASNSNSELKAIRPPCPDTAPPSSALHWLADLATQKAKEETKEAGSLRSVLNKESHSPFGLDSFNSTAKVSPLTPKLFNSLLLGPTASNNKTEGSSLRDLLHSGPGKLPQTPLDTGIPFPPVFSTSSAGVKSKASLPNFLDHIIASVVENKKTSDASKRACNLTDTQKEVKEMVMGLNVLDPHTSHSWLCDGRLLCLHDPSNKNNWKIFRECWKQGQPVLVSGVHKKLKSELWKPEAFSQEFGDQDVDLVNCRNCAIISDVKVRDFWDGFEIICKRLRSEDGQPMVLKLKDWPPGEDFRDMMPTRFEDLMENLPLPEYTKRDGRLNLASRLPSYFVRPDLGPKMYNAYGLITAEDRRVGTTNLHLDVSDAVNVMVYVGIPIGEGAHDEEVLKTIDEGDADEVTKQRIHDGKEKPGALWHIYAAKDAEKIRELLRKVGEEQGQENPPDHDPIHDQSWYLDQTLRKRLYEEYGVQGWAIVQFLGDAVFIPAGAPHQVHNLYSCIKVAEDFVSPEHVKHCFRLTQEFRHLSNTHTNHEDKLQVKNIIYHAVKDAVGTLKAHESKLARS
Method: (§1) Assays are performed analogously to the protocol described by PerkinElmer (Roy et al. PerkinElmer Technical Note: AlphaLISA #12, April 2011)
(§2) Enzymes are dissolved in enzyme buffer and incubated for 10 min before being added to 3% DMSO solutions of compounds in enzyme buffer. Incubated for another 10 minutes, before substrate solution is added and the reaction mixture is incubated at room temperature. 10 μL acceptor beads, suspended in Epigenetic Buffer (Perkin Elmer AL008) from stock, are added and the suspension is incubated in the dark at room temperature, before a suspension of streptavidin donor beads (Perkin Elmer 6760002) in Epigenetic Buffer is added. After incubation at room temperature in the dark the plates are read. […]
(§3) BK9M2: Biotin-ARTKQTAR(KMe2)STGGKAPRKQ-NH2 (AnaSpec 64359) […]
(§4) Substrate Solution: Substrate, 25 μM L-Asc, and 10 μM α-KG in Buffer A.

KDM6A (UTX) = KDM6A (UTX) (Homo sapiens, UniProt O15550); test: Histone lysine demethylase AlphaLISA assay, KDM6A; conditions: read-out: KDM6A HDME Inhibition IC50
KDM6A (UTX), sequence (O15550 919-1401): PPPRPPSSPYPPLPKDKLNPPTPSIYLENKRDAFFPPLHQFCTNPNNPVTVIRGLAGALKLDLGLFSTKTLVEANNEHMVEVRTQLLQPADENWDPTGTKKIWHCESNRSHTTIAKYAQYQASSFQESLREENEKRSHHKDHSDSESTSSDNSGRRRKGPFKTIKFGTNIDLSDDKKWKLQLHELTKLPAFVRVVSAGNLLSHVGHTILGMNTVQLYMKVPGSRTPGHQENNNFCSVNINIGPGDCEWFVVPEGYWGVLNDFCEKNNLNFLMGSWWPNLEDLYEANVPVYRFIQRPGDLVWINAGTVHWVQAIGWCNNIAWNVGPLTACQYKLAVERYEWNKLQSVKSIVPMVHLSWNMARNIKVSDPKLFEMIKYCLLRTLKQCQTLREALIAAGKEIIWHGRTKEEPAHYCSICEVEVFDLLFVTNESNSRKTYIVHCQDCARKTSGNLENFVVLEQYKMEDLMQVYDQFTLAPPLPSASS
Summary of the method: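 AlphaLISA demethylation readout: enzyme preincubated 10 min, then 10 min with compounds in 3% DMSO buffer, before biotinylated methyl-lysine histone peptide substrate with 25 μM L-Asc and 10 μM α-KG, room temperature. Acceptor beads then streptavidin donor beads added, dark incubation, plates read.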

KDM3A (JMJD1A) = molecular target: T2, KDM3A (JMJD1A) (Homo sapiens, UniProt Q9Y4C1); test: Histone lysine demethylase AlphaLISA assay, KDM3A; conditions: read-out: KDM3 A HDME Inhibition IC50
T2 construct: 2-end; purchased BPS Bioscience, US; host or cells: Bac (baculovirus system)
T2 sequence (Q9Y4C1 2-1321 limits assumed): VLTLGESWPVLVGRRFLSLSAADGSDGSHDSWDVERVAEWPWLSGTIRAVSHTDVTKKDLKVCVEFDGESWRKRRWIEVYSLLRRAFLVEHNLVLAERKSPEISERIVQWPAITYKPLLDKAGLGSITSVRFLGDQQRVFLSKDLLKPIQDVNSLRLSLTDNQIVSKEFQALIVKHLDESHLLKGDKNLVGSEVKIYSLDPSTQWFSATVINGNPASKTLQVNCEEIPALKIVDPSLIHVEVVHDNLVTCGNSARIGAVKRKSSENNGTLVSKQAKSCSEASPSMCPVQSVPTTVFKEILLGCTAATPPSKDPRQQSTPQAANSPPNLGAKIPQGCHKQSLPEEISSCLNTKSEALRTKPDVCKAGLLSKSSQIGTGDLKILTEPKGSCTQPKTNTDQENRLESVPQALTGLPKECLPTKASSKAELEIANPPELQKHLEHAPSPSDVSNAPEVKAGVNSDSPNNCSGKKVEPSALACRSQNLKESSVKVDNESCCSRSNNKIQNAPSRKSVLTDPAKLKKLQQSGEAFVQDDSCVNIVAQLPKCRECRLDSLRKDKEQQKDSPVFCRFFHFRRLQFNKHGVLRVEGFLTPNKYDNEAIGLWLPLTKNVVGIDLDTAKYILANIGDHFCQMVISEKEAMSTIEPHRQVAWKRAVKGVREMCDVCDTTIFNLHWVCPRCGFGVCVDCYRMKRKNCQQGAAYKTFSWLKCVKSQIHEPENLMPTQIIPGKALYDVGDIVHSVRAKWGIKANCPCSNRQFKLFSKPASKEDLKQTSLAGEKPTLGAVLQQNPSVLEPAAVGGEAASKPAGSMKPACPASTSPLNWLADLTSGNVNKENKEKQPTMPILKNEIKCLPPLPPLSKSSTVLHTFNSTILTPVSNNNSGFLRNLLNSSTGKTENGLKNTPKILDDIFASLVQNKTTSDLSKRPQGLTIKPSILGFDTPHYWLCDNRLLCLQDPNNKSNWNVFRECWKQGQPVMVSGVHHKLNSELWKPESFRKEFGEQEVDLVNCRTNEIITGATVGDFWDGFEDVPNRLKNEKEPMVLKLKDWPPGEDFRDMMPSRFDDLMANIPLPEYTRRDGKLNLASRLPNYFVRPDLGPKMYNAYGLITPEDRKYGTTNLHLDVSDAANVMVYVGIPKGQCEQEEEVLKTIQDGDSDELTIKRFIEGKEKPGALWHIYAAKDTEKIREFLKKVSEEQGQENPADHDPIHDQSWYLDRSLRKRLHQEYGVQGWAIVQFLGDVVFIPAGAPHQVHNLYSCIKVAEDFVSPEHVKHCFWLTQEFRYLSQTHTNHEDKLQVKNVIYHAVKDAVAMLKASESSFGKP
Method: as §1, §2, §3, §4

Row | SMILES | pIC50 (KDM3B (JMJD1B)) | pIC50 (KDM6A (UTX)) | pIC50 (KDM3A (JMJD1A))
1 | C(=N\C1CC1)/c1ccnc(CNCCCCN2CCC2)c1 [Compound 44, N-{[2-({[4-(azetidin-1-yl)butyl]amino}methyl)-pyridin-4-yl]methylidene}-cyclopropanamine] | < 5.60 | < 5.60 | < 5.60
2 | CN(C)CCCCNCc1cc(/C=N\C2CC2)ccn1 [Compound 45, N-{[2-({[4-(dimethylamino)butyl]-amino}methyl)-pyridin-4-yl]methylidene}-cyclopropanamine] | < 5.60 | < 5.60 | < 5.60
3 | CN(C)CC1CCC(CNCc2cc(/C=N/C3CC3)ccn2)CC1 (stereo not drawn) [Compound 46, N-[(2-{[({4-[(dimethylamino)-methyl]cyclohexyl}-methyl)amino]-methyl}pyridin-4-yl)methylidene]-cyclopropanamine] | < 5.60 | < 5.60 | < 5.60
4 | CN(C)CCCCCNCc1cc(/C=N/C2CC2)ccn1 [Compound 47, N-{[2-({[5-(dimethylamino)-pentyl]amino}-methyl)pyridin-4-yl]methylidene}-cyclopropanamine] | < 5.60 | < 5.60 | < 5.60
5 | CCN(CC)CCCCNC(=O)CNCc1cc(/C=N/C2CC2)ccn1 [Compound 48, 2-[({4-[N-cyclopropyl-carboximidoyl]pyridin-2-yl}methyl)amino]-N-[4-(diethylamino)-butyl]acetamide] | < 5.60 | < 5.60 | < 5.60
6 | O=C(CNCc1cc(/C=N/C2CC2)ccn1)N1CCC[C@@H]1CN1CCCC1 [Compound 49, 2-[({4-[N-cyclopropyl-carboximidoyl]pyridin-2-yl}methyl)amino]-1-[(2R)-2-(pyrrolidin-1-ylmethyl)pyrrolidin-1-yl]ethan-1-one] | < 5.60 | < 5.60 | < 5.60
7 | CCN(CCC#N)C(=O)CNCc1cc(/C=N/C2CC2)ccn1 [Compound 50, N-(2-cyanoethyl)-2-[({4-[N-cyclopropyl-carboximidoyl]-pyridin-2-yl}methyl)amino]-N-ethylacetamide] | < 5.60 | < 5.60 | < 5.60
8 | CCN1CCCC1CNC(=O)CNCc1cc(/C=N/C2CC2)ccn1 (stereo not drawn) [Compound 51, 2-[({4-[N-cyclopropyl-carboximidoyl]-pyridin-2-yl}methyl)-amino]-N-[(1-ethylpyrrolidin-2-yl)methyl]acetamide] | < 5.60 | < 5.60 | < 5.60
9 | CN(CCCn1cccn1)C(=O)CNCc1cc(/C=N/C2CC2)ccn1 [Compound 52, 2-[({4-[N-cyclopropyl-carboximidoyl]-pyridin-2-yl}methyl)amino]-N-methyl-N-[3-(1H-pyrazol-1-yl)propyl]acetamide] | < 5.60 | < 5.60 | < 5.60
10 | O=C(CNCc1cc(/C=N/C2CC2)ccn1)NC1CCN(Cc2ccccc2)C1 (stereo not drawn) [Compound 53, N-(1-benzylpyrrolidin-3-yl)-2-[({4-[N-cyclopropyl-carboximidoyl]pyridin-2-yl}methyl)amino]-acetamide] | < 5.60 | < 5.60 | 5.60 to 6.60
11 | CN1CCN(C(=O)CNCc2cc(/C=N/C3CC3)ccn2)CC1 [Compound 54, 2-[({4-[N-cyclopropyl-carboximidoyl]-pyridin-2-yl}methyl)amino]-1-(4-methylpiperazin-1-yl)ethan-1-one] | 5.60 to 6.60 | < 5.60 | < 5.60
12 | O=C(CNCc1cc(/C=N/C2CC2)ccn1)N1CCC(Cc2ccccc2)CC1 [Compound 55, 1-(4-benzylpiperidin-1-yl)-2-[({4-[N-cyclopropyl-carboximidoyl]-pyridin-2-yl}methyl)amino]-ethan-1-one] | < 5.60 | < 5.60 | < 5.60
13 | C#CCN(C)C(=O)CNCc1cc(/C=N/C2CC2)ccn1 [Compound 56, 2-[({4-[N-cyclopropyl-carboximidoyl]-pyridin-2-yl}methyl)amino]-N-methyl-N-(prop-2-yn-1-yl)acetamide] | < 5.60 | < 5.60 | < 5.60
14 | CCN(CC)C(=O)CNCc1cc(/C=N/CCC2CCCCC2)ccn1 [Compound 57, 2-[({4-[[(2-cyclohexylethyl)imino]-methyl]pyridin-2-yl}methyl)amino]-N,N-diethylacetamide] | < 5.60 | < 5.60 | < 5.60
15 | CCCCCCCC/N=C/c1ccnc(CNCC(=O)N(CC)CC)c1 [Compound 58, N,N-diethyl-2-[({4-[(octylimino)methyl]-pyridin-2-yl}methyl)amino]-acetamide] | < 5.60 | < 5.60 | < 5.60
16 | CCN(CC)CCCCNCc1cc(/C=N/CCOC)ccn1 [Compound 60, [4-(diethylamino)butyl]-({4-[[(2-methoxyethyl)imino]-methyl]pyridin-2-yl}methyl)amine] | < 5.60 | < 5.60 | < 5.60
17 | CCN(CC)CCCCNCc1cc(/C=N/CCO)ccn1 [Compound 61, 2-[{[2-({[4-(diethylamino)-butyl]amino}-methyl)pyridin-4-yl]methylidene}-amino]ethan-1-ol] | < 5.60 | < 5.60 | < 5.60
18 | CCN(CC)CCCCNCc1cc(/C=N/CC(F)(F)C(F)(F)F)ccn1 [Compound 62, {[2-({[4-(diethylamino)-butyl]amino}methyl)pyridin-4-yl]methylidene} (2,2,3,3,3-pentafluoropropyl)-amine] | < 5.60 | < 5.60 | < 5.60
19 | CON=Cc1ccnc(CNCCCN(C)C)c1 [Compound 64, [3-(dimethylamino)-propyl]({4-[(methoxyimino)-methyl]pyridin-2-yl}methyl)amine] | < 5.60 | < 5.60 | < 5.60
